The source of these data is US8609645B2, “Pharmaceutical formulation” (Intervet Inc., priority 2004, dated 2013).

Each structure is given as a SMILES string.

For series [1] the following is noted: cited from earlier work.
The conditions of series [2]: cited from earlier work. This is another data set of the same source.
Series [3] relates to fungi. Put plainly: Antifungal activity compared with traditional veterinary antifungal compounds. Particulars: fold versus clotrimazole, miconazole, nystatin. The source says:
The antifungal drug preferably is posaconazole, a drug with 10-400× the antifungal activity of traditional antifungal compounds used in veterinary medicine such as clotrimazole, miconazole, nystatin. It will be the first use of a triazole antifungal in veterinary medicine. The combination for this proposed otic product is new. The product requires only one application per day. In summary, the justification for use of the centralized procedure is: • Novel antibiotic in an otic preparation with none of the ototoxicity of the aminoglycosides often used in such products; • Novel, corticosteroid, with a better safety profile when compared other corticosteroids used in otic preparations; • Potent triazole anti-fungal drug; • Novel combination of the three drugs described above; • Single daily application.

`C[C@@H]1C[C@H]2[C@@H]3CCC4=CC(=O)C=C[C@]4(C)[C@@]3(Cl)[C@@H](O)C[C@]2(C)[C@@]1(OC(=O)c1ccco1)C(=O)CCl` [Mometasone Furoate, 9,21-Dichloro-11(beta),17-dihydroxy-16(alpha)-methylpregna-1,4-diene-3,20-dione 17-(2 Furoate)]: in series [1] (acetone), the solubility in acetone entry is recorded as “soluble”. The solubility in chloroform result in series [1] (chloroform) is reported as “soluble”. The solubility in ethanol result in series [1] (ethanol) is reported as “slightly soluble”. Besides, the solubility in isopropanol result in series [1] (isopropanol) was “slightly soluble”. In addition, the solubility in methanol result in series [1] (methanol) was “slightly soluble”. For the same compound, the solubility in tetrahydrofuran entry in series [1] (tetrahydrofuran) is “freely soluble”. In addition, in series [1] (water), the solubility in water entry is recorded as “practically insoluble”. Further, the “partition coefficient between octanol and water” value in series [2] was “greater than 5000”.
In the case of `CC[C@@H]([C@H](C)O)n1ncn(-c2ccc(N3CCN(c4ccc(OC[C@@H]5CO[C@@](Cn6cncn6)(c6ccc(F)cc6F)C5)cc4)CC3)cc2)c1=O` [posaconazole], in series [3], the “antifungal activity relative to traditional antifungal compounds” value is listed as 10-400 ×.
